Reference: patent publication US20240058450A1, “BCL-XL Inhibitory Compounds Having Low Cell Permeability and Antibody Drug Conjugates Including the Same” (AbbVie Inc., priority 2014, published 2024)
Like-named read-outs stand apart in the source and are kept apart here.

Legend:
[1] = tested on: permeabilized Bcl-xL dependent Molt-4 cells; experiment: Cytochrome C release in selectively (digitonin) permeabilized Molt-4 cells; format: cell-based, human; details: Homo sapiens, MOLT-4, 4 h, 4 h treatment, read-out: Molt-4 Permeabilized Cyt C Release
Description: The permeabilization of the mitochondrial outer membrane to release proteins from the intermembrane space into the cytosol is a pivotal event in the process of apoptosis. Specifically, the release of cytochrome C triggers the formation of the apoptosome which, in turn, results in caspase activation and other events that will commit the cell to undergo programmed cell death (Goldstein el al., 2005, Cell Death and Differentiation 12:453). The process of mitochondrial outer membrane permeabilization (MOMP) is controlled by the Bcl-2 family members. It is promoted by the multidomain pro-apoptotic proteins Bax and Bak which, upon activation, oligomerize on the outer mitochondrial membrane and form pores to ultimately release cytochrome C. This action is antagonized by the antiapoptotic members, including Bcl-2 and Bcl-xL. Compounds that are capable of inhibiting Bcl-2 or Bcl-xL, for example, in cells that depend upon these proteins for survival, can cause activation of Bax and or Bak, MOMP, release of cytochrome C and the mentioned downstream steps in the apoptotic process. This process of cytochrome C release can be measured in cells via Western blot of both mitochrondrial and cytosolic fractions, and can be used a proxy measurement of apoptosis in cells.
As a means of detecting the ability of a Bcl-xL inhibitor with low cell-permeability to cause release of cytochrome C, the cells can be treated with an agent that causes selective pore formation in the plasma membrane, but not the mitochondrial membrane. Specifically, the cholesterol/phospholipid ratio is much higher in the plasma membrane than the mitochondrial membrane. […] This agent forms insoluble complexes with cholesterol leading to the segregation of cholesterol from its normal phospholipid binding sites. This action, in turn, leads to the formation of holes about 40-50 Å wide in the lipid bilayer. Once the plasma membrane is permeabilized, cytosolic components able to pass over digitonin-formed holes can be washed out, including the cytochrome C that was released from mitochondria to cytosol in the apoptotic cells ((Campos, 2006, Cytometry A 69(6):515-523)).
To determine if Bcl-xL inhibitors were inducing cell death through apoptosis, cytochrome C release was measured in Bcl-xL dependent Molt-4 cells following treatment Specifically, 1×10^6 cells were treated for 4 h (37° C., 5% CO2) with the test compounds in half-log dilutions starting at 3.0 μM and ending at 0.01 μM. Cells were then processed as described in Chen et al., 2011, Mol. Cancer Ther. 10:2340-2350 (the Bcl-2/Bcl-X(L)/Bcl-w inhibitor, navitoclax, enhances the activity of chemotherapeutic agents in vitro and in vivo.).

Bcl-xL = Bcl-xL (Homo sapiens, UniProt Q07817); experiment: Time Resolved-Fluorescence Resonance Energy Transfer (TR-FRET) binding assay, competition with probe F-Bak
Procedure, shortened: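 Compounds compete with F-Bak probe for GST-Bcl-xL detected by Tb-anti-GST antibody. Serial dilutions from 50 μM (2× stock) incubated 2 h at room temperature, then read at 340 nm excitation, 520 and 495 nm emission. Ki by Wang's equation, tested without and with 1% human serum.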

[2] = tested on: Molt-4 human acute lymphoblastic leukemia cells; experiment: Molt-4 cell viability assay (CellTiter-Glo, 48 hours, 10% HS); format: cell-based; details: Homo sapiens, MOLT-4, 48 h, non-permeabilized cells
Procedure, shortened: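 Cells were seeded at 12,500 per well in medium with 10% human serum and exposed to a 3-fold compound dilution series from 10 μM to 0.0005 μM. After 48 h, viable cells were quantified by CellTiter-Glo luminescence. Each concentration was run in duplicate on at least 3 occasions.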

[3] = in the presence of 1% HS, read-out: Bcl-xL Binding Ki (nM, 1% HS)
[4] = without HS, read-out: Bcl-xL Binding Ki

Bcl-xL, sequence (Q07817 whole entry): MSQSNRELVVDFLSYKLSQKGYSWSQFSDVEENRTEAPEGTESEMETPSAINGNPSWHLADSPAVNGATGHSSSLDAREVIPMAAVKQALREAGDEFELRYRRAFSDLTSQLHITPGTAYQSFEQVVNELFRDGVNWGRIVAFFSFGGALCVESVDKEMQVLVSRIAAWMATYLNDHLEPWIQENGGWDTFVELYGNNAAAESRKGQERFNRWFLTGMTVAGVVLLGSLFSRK

SMILES | EC50 [1] | Ki (Bcl-xL; [3]) | Ki (Bcl-xL; [4]) | EC50 [2]
Cc1c(-c2ccc(N3CCc4cccc(C(=O)Nc5nc6ccccc6s5)c4C3)nc2C(=O)O)cnn1CC12CC3(C)CC(C)(C1)CC(OCCNCCS(=O)(=O)O)(C3)C2 [Example 1.2, 6-[8-(1,3-benzothiazol-2-ylcarbamoyl)-3,4-dihydroisoquinolin-2 (1H)-yl]-3-(1-[(3,5-dimethyl-7-{12-[(2-sulfoethyl)amino]ethoxy}tricyclo[3.3.1.1^3,7]dec-1-yl)methyl]-5-methyl-1H-pyrazol-4-yl}pyridine-2-carboxylic acid] | < 0.5 nM | 0.16 nM | < 0.001 nM | –
Cc1c(-c2ccc(N3CCc4cccc(C(=O)Nc5nc6ccccc6s5)c4C3)nc2C(=O)O)cnn1CC12CC3(C)CC(C)(C1)CC(OCCNCCCS(=O)(=O)O)(C3)C2 [Example 1.5, 6-[8-(1,3-benzothiazol-2-ylcarbamoyl)-3,4-dihydroisoquinolin-2 (1H)-yl]-3-{1-[(3,5-dimethyl-7-{2-[(3-sulfopropyl)amino]ethoxy}tricyclo[3.3.1.1^3,7]dec-1-yl)methyl]-5-methyl-1H-pyrazol-4-yl}pyridine-2-carboxylic acid] | 0.5 to 1 nM | 0.26 nM | 0.019 nM | 189 nM
Cc1c(-c2ccc(N3CCc4cccc(C(=O)Nc5nc6ccccc6s5)c4C3)nc2C(=O)O)cnn1CC12CC3(C)CC(C)(C1)CC(OCCOCCNCc1ccc(O[C@@H]4O[C@H](CO)[C@@H](O)[C@@H](O)[C@H]4O)cc1)(C3)C2 [Example 1.10, 3-[1-({3-[2-(2-{[4-(beta-D-allopyranosyloxy)benzyl]amino}ethoxy)ethoxy]-5,7-dimethyltricyclo[3.3.1.1^3,7]dec-1-yl}methyl)-5-methyl-1H-pyrazol-4-yl]-6-[8-(1,3-benzothiazol-2-ylcarbamoyl)-3,4-dihydroisoquinolin-2 (1H)-yl]pyridine-2-carboxylic acid] | < 0.5 nM | 0.027 nM | < 0.001 nM | 74 nM
Cc1c(-c2ccc(N3CCc4cccc(C(=O)Nc5nc6ccccc6s5)c4C3)nc2C(=O)O)cnn1CC12CC3(C)CC(C)(C1)CC(OCCOCCNCCS(=O)(=O)O)(C3)C2 [Example 1.11, 6-[8-(1,3-benzothiazol-2-ylcarbamoyl)-3,4-dihydroisoquinolin-2 (1H)-yl]-3-(1-{[3,5-dimethyl-7-(2-{2-[(2-sulfoethyl)amino]ethoxy}ethoxy)tricyclo[3.3.1.1^3,7]dec-1-yl]methyl}-5-methyl-1H-pyrazol-4-yl}pyridine-2-carboxylic acid] | < 0.5 nM | 0.17 nM | < 0.001 nM | 63 nM
Cc1c(-c2ccc(N3CCc4cccc(C(=O)Nc5nc6ccccc6s5)c4C3)nc2C(=O)O)cnn1CC12CC3(C)CC(C)(C1)CC(OCCNCCP(=O)(O)O)(C3)C2 [Example 1.12, 6-[8-(1,3-benzothiazol-2-ylcarbamoyl)-3,4-dihydroisoquinolin-2 (1H)-yl]-3-{1-[(3,5-dimethyl-7-{2-[(2-phosphonoethyl)amino]ethoxy}tricyclo[3.3.1.1^3,7]dec-1-yl)methyl]-5-methyl-1H-pyrazol-4-yl}pyridine-2-carboxylic acid] | < 0.5 nM | 0.08 nM | < 0.001 nM | 389 nM
Cc1c(-c2ccc(N3CCc4c(OCCNCCC(=O)O)ccc(C(=O)Nc5nc6ccccc6s5)c4C3)nc2C(=O)O)cnn1CC12CC3(C)CC(C)(C1)CC(OCCN(C)CCS(=O)(=O)O)(C3)C2 [Example 1.49, 6-[8-(1,3-benzothiazol-2-ylcarbamoyl)-5-{2-[(2-carboxyethyl)amino]ethoxy}-3,4-dihydroisoquinolin-2 (1H)-yl]-3-{1-[(3,5-dimethyl-7-{2-[methyl(2-sulfoethyl)amino]ethoxy}tricyclo[3.3.1.1^3,7]dec-1-yl)methyl]-5-methyl-1H-pyrazol-4-yl}pyridine-2-carboxylic acid] | < 0.5 nM | – | – | 92 nM
Cc1c(-c2ccc(-c3cc4cccc(C(=O)Nc5nc6ccccc6s5)c4[nH]3)nc2C(=O)O)cnn1CC12CC3(C)CC(C)(C1)CC(OCCNCCS(=O)(=O)O)(C3)C2 [Example 1.74, 6-[7-(1,3-benzothiazol-2-ylcarbamoyl)-1H-indol-2-yl]-3-{1-[(3,5-dimethyl-7-{2-[(2-sulfoethyl)amino]ethoxy}tricyclo[3.3.1.1^3,7]dec-1-yl)methyl]-5-methyl-1H-pyrazol-4-yl}pyridine-2-carboxylic acid] | – | 0.016 nM | < 0.01 nM | 5.7 nM
CNCCCc1cc2c(c(C(=O)Nc3nc4ccccc4s3)c1)CN(c1ccc(-c3cnn(CC45CC6(C)CC(C)(C4)CC(OCCNCCS(=O)(=O)O)(C6)C5)c3C)c(C(=O)O)n1)CC2 [Example 1.75, 6-[8-(1,3-benzothiazol-2-ylcarbamoyl)-6-[3-(methylamino)propyl]-3,4-dihydroisoquinolin-2 (1H)-yl]-3-{1-[(3,5-dimethyl-7-{2-[(2-sulfoethyl)amino]ethoxy}tricyclo[3.3.1.1^3,7]dec-1-yl)methyl]-5-methyl-1H-pyrazol-4-yl}pyridine-2-carboxylic acid] | – | 0.85 nM | 0.016 nM | 409 nM
Cc1c(-c2ccc(-c3ccc4cncc(C(=O)Nc5nc6ccccc6s5)c4c3)nc2C(=O)O)cnn1CC12CC3(C)CC(C)(C1)CC(OCCNCCS(=O)(=O)O)(C3)C2 [Example 1.78, 6-[4-(1,3-benzothiazol-2-ylcarbamoyl)isoquinolin-6-yl]-3-{1-[(3,5-dimethyl-7-(2-[(2-sulfoethyl)amino]ethoxy}tricyclo[3.3.1.1^3,7]dec-1-yl)methyl]-5-methyl-1H-pyrazol-4-yl}pyridine-2-carboxylic acid] | – | < 0.01 nM | < 0.01 nM | 2.22 nM
Cc1c(-c2ccc(N3CCc4cccc(C(=O)Nc5nc6ccccc6s5)c4C3)nc2C(=O)O)cnn1CC12CC3(C)CC(C)(C1)CC(OCCNCC[C@H](O)[C@H](O)CO)(C3)C2 [Example 1.80] | – | 0.78 nM | 0.053 nM | 355 nM
Cc1c(-c2ccc(N3CCc4cccc(C(=O)Nc5nc6ccccc6s5)c4C3)nc2C(=O)O)cnn1CC12CC3(C)CC(C)(C1)CC(OCCNC[C@H](O)[C@@H](O)CO)(C3)C2 [Example 1.81, 6-[8-(1,3-benzothiazol-2-ylcarbamoyl)-3,4-dihydroisoquinolin-2 (1H)-yl]-3-(1-{[3,5-dimethyl-7-(2-{[(2S,3S)-2,3,4-trihydroxybutyl]amino}ethoxy)tricyclo[3.3.1.1^3,7]dec-1-yl]methyl}-5-methyl-1H-pyrazol-4-yl}pyridine-2-carboxylic acid] | – | 0.37 nM | 0.011 nM | 252 nM
Cc1c(-c2ccc(N3CCc4cccc(C(=O)Nc5nc6ccccc6s5)c4C3)nc2C(=O)O)cnn1CC12CC3(C)CC(C)(C1)CC(OCCNC[C@H](O)[C@H](O)[C@@H](O)[C@H](O)[C@H](O)CO)(C3)C2 [Example 1.82] | – | 0.46 nM | 0.023 nM | 373 nM
Cc1c(-c2ccc(N3CCc4cccc(C(=O)Nc5nc6ccccc6s5)c4C3)nc2C(=O)O)cnn1CC12CC3(C)CC(C)(C1)CC(OCCNS(=O)(=O)CCCNC(CO)CO)(C3)C2 [Example 1.83] | – | 0.66 nM | 0.031 nM | 178 nM
Cc1c(-c2ccc(N3CCc4cccc(C(=O)Nc5nc6ccccc6s5)c4C3)nc2C(=O)O)cnn1CC12CC3(C)CC(C)(C1)CC(OCCNCCC(=O)NC(CO)(CO)CO)(C3)C2 [Example 1.84, 6-[8-(1,3-benzothiazol-2-ylcarbamoyl)-3,4-dihydroisoquinolin-2 (1H)-yl]-3-{1-[(3-{2-[(3-{[1,3-dihydroxy-2-(hydroxymethyl)propan-2-yl]amino}-3-oxopropyl)amino]ethoxy}-5,7-dimethyltricyclo[3.3.1.1^3,7]dec-1-yl)methyl]-5-methyl-1H-pyrazol-4-yl}pyridine-2-carboxylic acid] | – | 1.2 nM | 0.069 nM | 259 nM
